The source of these data is PMC11666850, “Development and evaluation of deuterated [^18F]JHU94620 isotopologues for the non-invasive assessment of the cannabinoid type 2 receptor in brain” (EJNMMI Radiopharmacy and Chemistry, 2024).

SMILES strings stand for the structures. Values joined by “and” are separate entries in the source; they are usually repeats but may differ in a detail not shown here. Equal entries are not always repeated.

Series [1] is described as follows: in vivo. The conditions noted are these: male, Wistar, rat, iv. How it is done:
Female adult CD-1 mice (25–42 g body weight) were used for radiometabolite analysis of [^18F]JHU94620-d4 (n = 2, 33 and 34 MBq) and [^18F]JHU94620-d8 (n = 3, 26–33 MBq) at 30 min after intravenous tail vein injection of the radiotracer to allow for the comparison of radiometabolite analysis of [^18F]JHU94620 (Moldovan et al. [2016]). The mice were immobilized by short isoflurane narcosis for the injection of the radiotracer in a restrainer and awakened mice were kept in an isolated cage until euthanisation by cervical dislocation under isoflurane narcosis. Male Wistar rats (n = 12, 613–794 g) were used for radiometabolite analysis of [^18F]JHU94620-d8 at different time points (5, 15, 30 and 60 min p.i.) after intravenous tail vein injection of the radiotracer (37–74 MBq) for the correction of the input function in pharmacokinetic analysis. Rats were kept under isoflurane narcosis (gas mixture: 2.5% isoflurane and O2) on a warmed plate until euthanization by decapitation of deep narcotized animals. Plasma samples were obtained by centrifugation with 5500 g of blood samples for 2 min at 4 °C. Resected tissues brain and spleen were kept on ice and minced for 3 × 20 s with adding 0.5 to 1 mL of 0.9% NaCl using a Precellys lysing kit and Minilys homogenizer (Bertin Technologies SAS, Montigny-le-Bretonneux, France).
The samples were further processed for subsequent radio-chromatographic analyses. Two consecutive extractions were performed in duplicates for plasma and brain determinations. Plasma, brain and spleen samples were added to the four time the volume of an ice-cold MeOH/H2O mixture (9:1, v/v). […] The activities of supernatants and precipitates were measured in a γ-counter (1480 WIZARD, Perkin Elmer), and the extraction efficiencies were calculated as the ratio of radioactivity in the supernatant to the radioactivity in the original sample (supernatant + precipitate). The supernatants from both extractions were combined, concentrated at 70 °C under argon stream up to a remaining volume of 100 µL, and subsequently analysed by analytical radio-HPLC (method A or B).

In series [2] the target is T1, CB2R (Rattus norvegicus, UniProt Q9QZN9).
T1 construct: from tissue; host or cells: rat spleen: cryosections in vitro, and spleen of living Wistar rats in PET
T1 sequence (Q9QZN9 1-360): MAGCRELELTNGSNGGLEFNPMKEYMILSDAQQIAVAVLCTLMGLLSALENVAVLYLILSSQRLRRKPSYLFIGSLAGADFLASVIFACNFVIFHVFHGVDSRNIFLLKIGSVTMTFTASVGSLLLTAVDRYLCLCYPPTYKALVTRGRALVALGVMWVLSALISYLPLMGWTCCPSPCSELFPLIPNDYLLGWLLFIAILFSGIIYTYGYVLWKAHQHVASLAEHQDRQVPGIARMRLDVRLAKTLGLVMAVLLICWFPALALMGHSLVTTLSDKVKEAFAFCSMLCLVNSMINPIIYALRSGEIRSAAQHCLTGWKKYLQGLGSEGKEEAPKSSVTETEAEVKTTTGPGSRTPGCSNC
As to the kind of experiment: Quantitative autoradiography, rat spleen cryosections. In kind it is binding. How it is done: (§1) For quantitative autoradiography in different species, 10 µm cryosections from mouse, rat and piglet spleen were thawed, dried, and pre-incubated with incubation buffer for 10 min, dried under an airstream. Subsequently, the incubation buffer containing [^18F]JHU94620-d8 (59–137 GBq µmol^−1, 1.7–3.6 nM) was added alone or together with indicated concentrations of the reference compound. Additionally, to assess the non-specific binding of [^18F]JHU94620-d8 to cryosections GW405833 was added instead of the reference compound. After 90 min, cryosections were washed two times for 2 min with ice-cold 50 mM Tris HCl, pH7.4 and 10 s in ddH2O and subsequently dried under an airstream. For the calculation of the radioactivity concentration, 5 µl of five serial 1:2 dilutions of the incubation buffer with [^18F]JHU94620-d8 were air-dried on a microscopic slide. For binding studies in rat spleen cryosections by autoradiography with HLM-derived radiometabolites of [^18F]JHU94620-d8 obtained from the radiometabolite assay, the samples were added to the incubation buffer to a final activity concentration of 0.2 MBq mL^−1 and protocol was followed as described above. Subsequently, the slides were exposed to a phosphor imager plate. After scanning at high sensitivity and a 12.5 µm resolution with a CR35 Bio image plate scanner (Raytest Isotopenmessgeräte GmbH, Straubenhardt, Germany). The analyses of the autoradiographic images were performed with the AIDA 5.1 software (Elysia-Raytest, Angleur, Belgium) resulting in a resolution of 12.617 pixel × 12.616 pixel per µm^2 (1 voxel = 1592 µm^3 ≙ 1.59 10^–3 µg wet tissue) and inhibition curves were created with GraphPad Prism 9.5.1 (GraphPad Inc., La Jolla, CA).
The KD values were calculated with GraphPad Prism according to the modified Cheng-Prusoff method for homologous competitive binding studies, where the KD = Ki = IC50—[radioligand] and the Bmax = specific binding / [radioligand] / ((KD + [radioligand])) (Motulsky and Neubig [2000]), assuming a total protein content of 8.2% (1.3 10^–4 µg protein per voxel) in the spleen (Zaia et al. [2000]) or by determining the protein concentration of the cell membrane lysates using a BCA assay (Thermo Scientific, Braunschweig, Germany). The fractional occupancy defined as occupied binding sites per total binding sites is used to describe the binding fraction specifically bound to CB2R compared to unspecific binding, where [L] is the concentration of the ligand at the start of incubation.

Series [3] concerns the target T2, CB2R (Mus musculus, UniProt P47936).
T2 construct: from tissue; host or cells: mouse spleen cryosections
As to the kind of experiment: Quantitative autoradiography, mouse spleen cryosections. In kind it is binding. How it is done:
as §1, with “CA). […]” for “CA).”

In series [4] the test system is CB2R. Put plainly: Quantitative autoradiography, pig spleen cryosections. The conditions noted are these: blocking with 10 µM GW405833 or self-blocking. In kind it is binding. How it is done:
as §1, with “The analyses of the autoradiographic images were performed with the AIDA 5.1 software (Elysia-Raytest, Angleur, Belgium) resulting in a resolution of 12.617 pixel × 12.616 pixel per µm^2 (1 voxel = 1592 µm^3 ≙ 1.59 10^–3 µg wet tissue) and inhibition curves were created with GraphPad Prism 9.5.1 (GraphPad Inc., La Jolla, CA).” left out

The target of series [5] is hCB2R(D80N) (Homo sapiens, UniProt P34972, D80N). As to the kind of experiment: Homologous displacement autoradiography, brain cryosections of rats with hCB2R(D80N) overexpression. The format is binding.
hCB2R(D80N), sequence (P34972 whole entry D80N): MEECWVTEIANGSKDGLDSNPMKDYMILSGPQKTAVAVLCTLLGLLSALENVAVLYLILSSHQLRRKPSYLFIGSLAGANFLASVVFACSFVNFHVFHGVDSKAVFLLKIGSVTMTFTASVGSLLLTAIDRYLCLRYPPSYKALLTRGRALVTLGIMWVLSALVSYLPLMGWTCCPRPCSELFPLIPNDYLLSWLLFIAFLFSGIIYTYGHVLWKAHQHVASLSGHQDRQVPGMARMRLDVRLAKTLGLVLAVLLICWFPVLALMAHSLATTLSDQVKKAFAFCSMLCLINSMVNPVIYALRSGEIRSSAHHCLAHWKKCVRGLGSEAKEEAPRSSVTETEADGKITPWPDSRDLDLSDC

T2 sequence (P47936 whole entry): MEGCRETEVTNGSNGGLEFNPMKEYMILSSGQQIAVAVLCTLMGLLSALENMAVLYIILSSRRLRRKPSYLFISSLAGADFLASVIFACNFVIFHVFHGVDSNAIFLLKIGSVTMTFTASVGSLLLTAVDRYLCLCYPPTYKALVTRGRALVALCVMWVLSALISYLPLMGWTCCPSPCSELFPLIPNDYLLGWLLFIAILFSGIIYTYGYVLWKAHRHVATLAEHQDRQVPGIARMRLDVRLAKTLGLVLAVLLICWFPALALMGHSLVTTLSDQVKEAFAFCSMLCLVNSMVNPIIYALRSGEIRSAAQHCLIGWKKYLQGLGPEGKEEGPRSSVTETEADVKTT

For `[2H]C([2H])([18F])C([2H])([2H])C([2H])([2H])C([2H])([2H])n1c(C)c(C)s/c1=N\C(=O)C1C(C)(C)C1(C)C` [[^18F]JHU94620-d8], the half-life (usually how long it takes for the measured level to halve) was 53.8 min in series [1] (metabolic half-life (t1/2) in brain), 7.6 min in series [1] (metabolic half-life (t1/2) in plasma) and 37.3 min in series [1] (metabolic half-life (t1/2) in spleen). The Kd (usually the constant that tells how readily two partners part at equilibrium) in series [2] (KD values determined by autoradiography, rat and mouse spleen (range over both species)) was 0.74 to 1.98 nM; in series [2] (KD, rat spleen cryosection, homologous displacement autoradiography, n = 3), 0.74 nM; in series [3], 1.98 nM; in series [5], 41 nM. Further, the “specific binding to CB2R” value in series [2] (rat spleen cryosections, blocking with 10 µM GW405833 or self-blocking) is 48 ± 6% and 48%; in series [3] (mouse spleen cryosections, blocking with 10 µM GW405833 or self-blocking), 40 ± 18%; in series [4] it was 22 ± 11%. In addition, the Bmax in series [2] (spleen of rats) and in series [3] (spleen of mice) was 0.08 pmol mg^−1 protein throughout.
